Source: ChEMBL document CHEMBL4138146, “A Schmidt rearrangement-mediated synthesis of novel tetrahydro-benzo[1,4]diazepin-5-ones as potential anticancer and antiprotozoal agents” (Eur J Med Chem, 2017)

Assays:
Format in all cases: functional
[1] = test system: MOLT-4; assay: Growth inhibition of human MOLT4 cells assessed as cell growth at 10^-6 M incubated for 48 hrs by sulforhodamine B assay relative to control; settings: MOLT-4, 48 h, read-out: Activity
[2] = test system: NCI-H226; assay: Growth inhibition of human NCI-H226 cells assessed as cell growth at 10^-8 M incubated for 48 hrs by sulforhodamine B assay relative to control; settings: NCI-H226, 48 h, read-out: Activity
[3] = test system: MDA-MB-435; assay: Growth inhibition of human MDA-MB-435 cells assessed as cell growth at 10^-7 M incubated for 48 hrs by sulforhodamine B assay relative to control; settings: MDA-MB-435, 48 h, read-out: Activity
[4] = test system: COLO 205; assay: Growth inhibition of human COLO205 cells assessed as cell growth at 10^-6 M incubated for 48 hrs by sulforhodamine B assay relative to control; settings: COLO 205, 48 h, read-out: Activity
[5] = test system: NCI-H522; assay: Growth inhibition of human NCI-H522 cells assessed as cell growth at 10^-6 M incubated for 48 hrs by sulforhodamine B assay relative to control; settings: NCI-H522, 48 h, read-out: Activity
[6] = test system: U-251; assay: Growth inhibition of human U251 cells assessed as cell growth at 10^-4 M incubated for 48 hrs by sulforhodamine B assay relative to control; settings: U-251, 48 h, read-out: Activity
[7] = test system: LOX IMVI; assay: Growth inhibition of human LOXIMVI cells assessed as cell growth at 10^-4 M incubated for 48 hrs by sulforhodamine B assay relative to control; settings: read-out: Activity
[8] = test system: SR; assay: Growth inhibition of human SR cells assessed as cell growth at 10^-6 M incubated for 48 hrs by sulforhodamine B assay relative to control; settings: read-out: Activity
[9] = test system: CAKI-1; assay: Growth inhibition of human Caki1 cells assessed as cell growth at 10^-4 M incubated for 48 hrs by sulforhodamine B assay relative to control; settings: CAKI-1, 48 h, read-out: Activity
[10] = test system: RXF 393; assay: Growth inhibition of human RXF393 cells assessed as cell growth at 10^-4 M incubated for 48 hrs by sulforhodamine B assay relative to control; settings: RXF 393, 48 h, read-out: Activity
[11] = test system: HL-60(TB); assay: Growth inhibition of human HL-60(TB) cells assessed as cell growth at 10^-6 M incubated for 48 hrs by sulforhodamine B assay relative to control; settings: HL-60, 48 h, read-out: Activity
[12] = test system: Malme-3M; assay: Growth inhibition of human MALME-3M cells assessed as cell growth at 10^-6 M incubated for 48 hrs by sulforhodamine B assay relative to control; settings: read-out: Activity
[13] = test system: MDA-MB-231; assay: Growth inhibition of human MDA-MB-231 cells assessed as cell growth at 10^-6 M incubated for 48 hrs by sulforhodamine B assay relative to control; settings: MDA-MB-231, 48 h, read-out: Activity
[14] = test system: Hs-578T; assay: Growth inhibition of human Hs 578T cells assessed as cell growth at 10^-4 M incubated for 48 hrs by sulforhodamine B assay relative to control; settings: read-out: Activity
[15] = test system: SW-620; assay: Growth inhibition of human SW620 cells assessed as cell growth at 10^-8 M incubated for 48 hrs by sulforhodamine B assay relative to control; settings: SW-620, 48 h, read-out: Activity
[16] = test system: NCI/ADR-RES; assay: Growth inhibition of human NCI/ADR-RES cells assessed as cell growth at 10^-7 M incubated for 48 hrs by sulforhodamine B assay relative to control; settings: read-out: Activity
[17] = test system: NCI-H23; assay: Growth inhibition of human NCI-H23 cells assessed as cell growth at 10^-4 M incubated for 48 hrs by sulforhodamine B assay relative to control; settings: NCI-H23, 48 h, read-out: Activity
[18] = test system: HCT-116; assay: Growth inhibition of human HCT116 cells assessed as cell growth at 10^-4 M incubated for 48 hrs by sulforhodamine B assay relative to control; settings: HCT-116, 48 h, read-out: Activity
[19] = test system: SN12C; assay: Growth inhibition of human SN12C cells assessed as cell growth at 10^-4 M incubated for 48 hrs by sulforhodamine B assay relative to control; settings: read-out: Activity
[20] = test system: SK-MEL-5; assay: Growth inhibition of human SK-MEL-5 cells assessed as cell growth at 10^-7 M incubated for 48 hrs by sulforhodamine B assay relative to control; settings: SK-MEL-5, 48 h, read-out: Activity
[21] = test system: OVCAR-8; assay: Growth inhibition of human OVCAR8 cells assessed as cell growth at 10^-5 M incubated for 48 hrs by sulforhodamine B assay relative to control; settings: OVCAR-8, 48 h, read-out: Activity
[22] = test system: RPMI-8226; assay: Growth inhibition of human RPMI8226 cells assessed as cell growth at 10^-7 M incubated for 48 hrs by sulforhodamine B assay relative to control; settings: RPMI-8226, 48 h, read-out: Activity
[23] = test system: RXF 393; assay: Growth inhibition of human RXF393 cells assessed as cell growth at 10^-5 M incubated for 48 hrs by sulforhodamine B assay relative to control; settings: RXF 393, 48 h, read-out: Activity
[24] = test system: OVCAR-4; assay: Growth inhibition of human OVCAR4 cells assessed as cell growth at 10^-7 M incubated for 48 hrs by sulforhodamine B assay relative to control; settings: OVCAR-4, 48 h, read-out: Activity
[25] = test system: HL-60(TB); assay: Growth inhibition of human HL-60(TB) cells assessed as cell growth at 10^-4 M incubated for 48 hrs by sulforhodamine B assay relative to control; settings: HL-60, 48 h, read-out: Activity
[26] = test system: NCI/ADR-RES; assay: Growth inhibition of human NCI/ADR-RES cells assessed as cell growth at 10^-5 M incubated for 48 hrs by sulforhodamine B assay relative to control; settings: read-out: Activity
[27] = test system: UO-31; assay: Growth inhibition of human UO31 cells assessed as cell growth at 10^-5 M incubated for 48 hrs by sulforhodamine B assay relative to control; settings: UO-31, 48 h, read-out: Activity
[28] = test system: BT-549; assay: Growth inhibition of human BT549 cells assessed as cell growth at 10^-6 M incubated for 48 hrs by sulforhodamine B assay relative to control; settings: BT-549, 48 h, read-out: Activity
[29] = test system: MDA-MB-468; assay: Growth inhibition of human MDA-MB-468 cells assessed as cell growth at 10^-8 M incubated for 48 hrs by sulforhodamine B assay relative to control; settings: MDA-MB-468, 48 h, read-out: Activity
[30] = test system: KM12; assay: Growth inhibition of human KM12 cells assessed as cell growth at 10^-7 M incubated for 48 hrs by sulforhodamine B assay relative to control; settings: KM12, 48 h, read-out: Activity
[31] = test system: HCC 2998; assay: Growth inhibition of human HCC2998 cells assessed as cell growth at 10^-5 M incubated for 48 hrs by sulforhodamine B assay relative to control; settings: HCC 2998, 48 h, read-out: Activity
[32] = test system: SN12C; assay: Growth inhibition of human SN12C cells assessed as cell growth at 10^-8 M incubated for 48 hrs by sulforhodamine B assay relative to control; settings: read-out: Activity
[33] = test system: PC-3; assay: Growth inhibition of human PC3 cells assessed as cell growth at 10^-5 M incubated for 48 hrs by sulforhodamine B assay relative to control; settings: PC-3, 48 h, read-out: Activity

CCCCOc1nc2ccccc2cc1C1CNC(=O)c2ccccc2N1 (stereo not drawn)
growth at 1 µM [1]: 92%
growth at 0.01 µM [2]: 97%
growth at 0.1 µM [3]: 98%
growth at 1 µM [4]: 98%
growth at 1 µM [5]: 65%
growth at 100 µM [6]: -77%
growth at 100 µM [7]: -81%
growth at 1 µM [8]: 55%
growth at 100 µM [9]: -22%
growth at 100 µM [10]: -58%
growth at 1 µM [11]: -19%
growth at 1 µM [12]: 62%
growth at 1 µM [13]: 85%
growth at 100 µM [14]: -25%
growth at 0.01 µM [15]: 96%
growth at 0.1 µM [16]: 97%
growth at 100 µM [17]: -26%
growth at 100 µM [18]: -67%
growth at 100 µM [19]: -53%
growth at 0.1 µM [20]: 100%
growth at 10 µM [21]: 12%
growth at 0.1 µM [22]: 98%
growth at 10 µM [23]: 5%
growth at 0.1 µM [24]: 98%
growth at 100 µM [25]: -55%
growth at 10 µM [26]: -15%
growth at 10 µM [27]: 31%
growth at 1 µM [28]: 84%
growth at 0.01 µM [29]: 78%
growth at 0.1 µM [30]: 98%
growth at 10 µM [31]: 15%
growth at 0.01 µM [32]: 97%
growth at 10 µM [33]: 9%
